This data set in a line: In vitro absorption of foam/gas in fresh human venous blood. The data set is classed as in vitro ADME. Particulars: 0.5 ml aliquot in 20 ml blood. The procedure: In vitro experiments were conducted to determine the absorption of foam made with different gases in fresh human venous blood.
A 20 ml polypropylene syringe barrel was prepared by puncturing its side wall with a relatively large hypodermic needle to make a hole approximately 1 mm in diameter. This hole was then covered by securing a piece of clear flexible vinyl sheet over it with clear adhesive tape. A small magnetic stirrer element was introduced into the syringe barrel and the plunger then replaced. 20 ml of human venous blood was then with withdrawn in the usual manner from a human subject using the specially prepared syringe fitted with a hypodermic needle.
The hypodermic needle was removed and the syringe then placed on a magnetic stirrer unit so that the magnetic element in the syringe thoroughly agitated the blood. The Luer nozzle of the syringe was then connected to a 50 cm piece of manometer tubing which was arranged horizontally and left open at one end. The manometer tubing was secured against a scale.
A 0.5 ml measuring syringe with a fine pre-fitted needle was then filled with foam made from 1% polidocanol solution and air. The density of the foam was 0.13 g/ml (±0.03 g/ml), the liquid component making up approximately 13% of the total volume of foam (±3%).
The needle of the 0.5 ml syringe was then introduced through the vinyl sheet on the side wall of the 20 ml syringe. […] The 0.5 ml aliquot of foam was then injected quickly and simultaneously a timer started (t0). As the foam displaced blood in the 20 ml syringe, the column of blood from the 20 ml syringe was displaced into the manometer tubing and the distance along the tubing reached by the distal end of the blood column was noted against the scale. The scale itself comprised spaced marker lines equally spaced at about 1 cm intervals. It was determined that a distance of 45 intervals on this scale corresponded to an internal volume of in the manometer tubing of approximately 0.5 ml.
As the gas in the foam started to be absorbed by the blood, the blood in the manometer tubing started to recede back towards the syringe. After the column appeared to have stopped moving, the timer was stopped (tF). The position of the distal end was again noted.
In this experiment, the air foam test was only observed for a few minutes after tF. However, further experiments have been conducted by the inventors, the results of which are not formally recorded here, involving foam with a percentage of nitrogen. A 20 ml syringe of fresh human venous blood, as in the above experiments, was injected with a 0.5 ml aliquot of a foam containing a percentage of nitrogen. The contents of the syringe were agitated as above and a period of 24 hours allowed to elapse.

The source of these data is US20060280690A1, “Methods of preparing a foam comprising a sclerosing agent” (priority 2003, published 2006).

The structures appear in SMILES notation.

For the compound `O=O` [Oxygen, oxygen], the “Absorbed volume at tF” value worked out at 0.46 mL, the Unabsorbed gas % came out at 8% and the Unabsorbed gas ml turned out to be 0.04 mL. Further, where the note is “time until blood column stopped moving”, the “tF” value was 140 s.
